Measured values taken from patent US9242959B2, “(Aza)benzhydryl ether derivatives, their process of preparation and their use as H4-receptor ligands for therapeutical applications” (BIOPROJET, priority 2012, dated 2016).

Tests used:
human H4 receptor [1] = biological target: T1, human H4 receptor (Homo sapiens, UniProt Q9H3N8); assay: GTPγ[35S] binding assay on membranes of SH-SY5Y cells stably expressing human H4 receptor; format: biochemical
T1 construct: expressed in transfected cells
Procedure: SH-SY5Y cells stably expressing human H4 receptor are grown until sub-confluence and centrifuged at 300 g 15 minutes at 4° C. Pellets are resuspended in buffer I Tris-HCl 50 mM, MgCl2 10 mM, NaCl 140 mM, pH=7.4 supplemented by Leupeptin 10 μg/mL, Phenyl Methyl Sulphonyl Fluoride (PMSF) 0.1 mM, Aprotinin 2 μg/mL and Pepstatin 2 μM (or a 1/50 dilution of a mix of protease inhibitors). The obtained suspension is stirred gently and submitted to a […] exerted through a syringe. The cell lysate is then centrifuged at 300 g 15 minutes at 4° C. in order to eliminate nucleus and cell scraps. The obtained supernatant is then centrifuged at 48000 g for 30 minutes at 4° C. The final pellet is resuspended in buffer I with a potter homogenizer. Aliquots are frozen in liquid nitrogen and stored until use at −80° C. Protein content is measured by the Bradford method.
Defreezed membranes are diluted at a final concentration of 5 μg/180 μL/well in buffer I supplemented by GDP 10 μM and distributed in 96 well polystyrene microplate. GTPγ [^35S] labelled ligand (0.2-0.3 nM) is added for additional 30 minutes. After transfer in a Millipore GF/C HTS® microplate, the filtration of the rectional mix is followed by a three times 250 μl wash to stop the reaction.
The filter-bound radioactivity is measured in a liquid scintillation counter Microbeta TRILUX® with 50 μl of scintillation fluid.
Results are expressed with IC50 and Ki values.

human H4 receptor [2] = biological target: T1, human H4 receptor; assay: [3H]Histamine binding assay on membranes of CHO cells stably expressing human H4 receptor
Procedure: CHO cells stably expressing human H4 receptor were grown until sub-confluence and centrifuged at 300 g 15 minutes at 4° C. Pellets were resuspended in buffer I Tris-HCl 50 mM, MgCl2 10 mM, NaCl 140 mM, pH=7.4 supplemented by a 1/50 dilution of a mix of protease inhibitors. The obtained suspension is stirred gently and submitted to a […] exerted through a syringe. The cell lysate is then centrifuged at 300 g 15 minutes at 4° C. in order to eliminate nucleus and cell scraps. The obtained supernatant was then centrifuged at 48000 g for 30 minutes at 4° C. The final pellet is resuspended in buffer I with a potter homogenizer. Aliquots were frozen in liquid nitrogen and stored until use at −80° C. Protein content is measured by the Bradford method.
Defreezed membranes were diluted at a final concentration of 20 μg/180 μL/well in a binding buffer containing 50 mM Tris/HCl, 0.5 mM EDTA, pH=7.4 and distributed in 96 well polystyrene microplate. [^3H] […] Non specific binding was estimated in the presence of 10 μM BP1.2404 (JNJ 7777120). The reaction was terminated by filtration through GF/B filters pre-soaked 2 hours at 4° C. in 1% polyethyleneimine. Filters were rinsed 3 times with 250 μl of ice cold incubation binding buffer.
The filter-bound radioactivity was measured in a liquid scintillation counter Microbeta TRILUX® with 50 μl of scintillation fluid.
The hH4 binding investigated by use of [^3H]

T1 sequence (Q9H3N8 whole entry): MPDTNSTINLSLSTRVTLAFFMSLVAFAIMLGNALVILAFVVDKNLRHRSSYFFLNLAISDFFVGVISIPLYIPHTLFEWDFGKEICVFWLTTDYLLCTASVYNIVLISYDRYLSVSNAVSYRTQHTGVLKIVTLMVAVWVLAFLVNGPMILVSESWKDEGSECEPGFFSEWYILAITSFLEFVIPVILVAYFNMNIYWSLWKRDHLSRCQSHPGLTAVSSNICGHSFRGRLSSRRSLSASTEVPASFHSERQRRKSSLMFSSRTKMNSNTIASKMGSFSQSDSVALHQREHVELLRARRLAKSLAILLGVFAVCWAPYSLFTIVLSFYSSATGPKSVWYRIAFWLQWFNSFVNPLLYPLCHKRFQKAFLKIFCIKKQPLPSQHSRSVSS

Row | SMILES | IC50 (human H4 receptor [1]) | melting point | Ki (human H4 receptor [2])
1 | Cc1ccnc(C(OC2CCN(C)CC2)c2ccc(C)cc2F)c1.O=C(O)C(=O)O.O=C(O)C(=O)O (stereo not drawn) [Example 7, 2-[(2-Fluoro-4-methylphenyl)(1-methylpiperidin-4-yloxy)methyl]-4-methylpyridine, dioxalate] | < 300 nM | 52 °C | < 300 nM
2 | Cc1ccc(C(OC2CCN(C)CC2)c2ccc(F)cn2)c(F)c1.O=C(O)C(=O)O (stereo not drawn) [Example 10, 5-Fluoro-2-[(2-fluoro-4-methylphenyl)(1-methylpiperidin-4-yloxy)methyl]pyridine, oxalate] | < 300 nM | 133 °C | < 300 nM
3 | CN1CCC(OC(c2cccc(C#CCCCCN)c2)c2ccc(Cl)cn2)CC1.O=C(O)C(=O)O (stereo not drawn) [Example 18, 6-{3-[(5-Chloropyridin-2-yl)(1-methylpiperidin-4-yloxy)methyl]phenyl}hex-5-ynylamine, oxalate] | < 300 nM | 136 °C | < 30 nM
4 | CN1CCC(OC(c2ccc3ccccc3c2)c2cc(OC(F)(F)F)ccc2F)CC1.O=C(O)C(=O)O (stereo not drawn) [Example 28, 4-[(2-Fluoro-5-trifluoromethoxyphenyl)naphthalen-2-ylmethoxy]-1-methylpiperidine, oxalate] | < 300 nM | 105 °C | < 1000 nM
5 | Cc1ccc(C(OC2CCN(C)CC2)c2ccc(Cl)c(Cl)c2)c(F)c1.O=C(O)C(=O)O (stereo not drawn) [Example 30, 4-[(3,4-Dichlorophenyl)(2-fluoro-4-methylphenyl)methoxy]-1-methylpiperidine, oxalate] | < 300 nM | 140 °C | < 300 nM
6 | CN1CCC(OC(c2ccc(Cl)c(Cl)c2)c2cc(OC(F)(F)F)ccc2F)CC1.O=C(O)C(=O)O (stereo not drawn) [Example 31, 4-[(3,4-Dichlorophenyl)(2-fluoro-5-trifluoromethoxyphenyl)methoxy]-1-methylpiperidine, oxalate] | < 300 nM | 115 °C | < 300 nM
7 | CN1CCC(OC(c2ccccc2F)c2cc(OC(F)(F)F)ccc2F)CC1.O=C(O)C(=O)O (stereo not drawn) [Example 32, 4-[(2-Fluorophenyl)-(2-fluoro-5-trifluoromethoxyphenyl)methoxy]-1-methylpiperidine, oxalate] | < 1000 nM | 116 °C | < 1000 nM
8 | CN1CCC(OC(c2ccc(Cl)cc2)c2cc(OC(F)(F)F)ccc2F)CC1.O=C(O)C(=O)O (stereo not drawn) [Example 33, 4-[(4-Chlorophenyl)(2-fluoro-5-trifluoromethoxyphenyl)methoxy]-1-methylpiperidine, oxalate] | < 300 nM | 117 °C | < 300 nM
9 | CN1CCC(OC(c2ccc(Cl)cc2)c2cccc(I)c2)CC1.O=C(O)C(=O)O (stereo not drawn) [Example 35, 4-[(4-Chlorophenyl)(3-iodophenyl)methoxy]-1-methylpiperidine, oxalate] | < 300 nM | 141 °C | < 30 nM
